{
  "source": "paper PMC6572184",
  "about": "“New γ-Halo-δ-lactones and δ-Hydroxy-γ-lactones with Strong Cytotoxic Activity” (Molecules, 2019)",
  "key": {"[1]": {"system": "Escherichia coli ATCC 8739", "assay": "Bactericidal activity, CFU counting method", "format": "cell-based", "settings": "E. coli ATCC 8739; for Number of CFU/mL (× 10^7): 18 h at 37 °C, Control 9.47, Control with DMSO 9.30", "procedure,_shortened": "(§1)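 Bacteria were grown 18 h on LB agar and suspended to 0.5 McFarland in 0.85% saline. Suspensions were mixed with enriched broth and compound (0.1–50 μg/mL, in DMSO) and incubated 18 h at 37 °C. Survivors were counted by CFU, with three repeats, a DMSO negative control and gentamicin as reference.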"}, "[2]": {"system": "Staphylococcus aureus ATCC 65389", "assay": "Bactericidal activity, CFU counting method", "format": "cell-based", "settings": "S. aureus ATCC 65389; 18 h at 37 °C; Control 21.36, Control with DMSO 20.85", "procedure,_shortened": "as §1"}, "[3]": {"assay": "Observation of purified γ-iodo-δ-lactone isomers (decomposition, translactonization)", "format": "physicochemical", "settings": "purified trans,trans and cis,trans γ-iodo-δ-lactones; residue an equimolar mixture of trans and cis hydroxylactones", "procedure": "Iodolactonization of 4a–c acids was carried out with I2/KI and NaHCO3 in a water/diethyl ether mixture. […] The yield of reactions was in the range of 69–85%. The reaction conditions prevented the direct synthesis of these compounds because the reaction was carried out in an alkaline solution, whereas hydroxylactonization requires an acidic environment. […] and predominantly formed in this reaction. The excess of trans-isomer is usually observed in the synthesis of γ -lactones. However, the reaction initially gave δ -iodo- γ -lactones, which, through a translactonization reaction, were transformed into the final products–hydroxylactones 12a and 13a. This was confirmed by observations of purified isomers trans,trans and cis,trans γ -iodo- δ -lactones 9b and 10b, and 9c and 10c. […] The carbocation was stabilized by the electron lone pairs of the oxygen atom present in the water molecule. The preparation of hydroxylactones from iodolactones has been described thus far only for biotransformation experiments. The synthesis described here allows obtaining these compounds without microorganisms."}, "[4]": {"system": "AGS cell lines (human gastric adenocarcinoma)", "assay": "MTT reduction cytotoxicity assay", "format": "cell-based", "settings": "for mean percentage of viable cells ± SD: 24 h"}, "[5]": {"system": "L929 cell lines (mouse fibroblasts)", "assay": "MTT reduction cytotoxicity assay", "format": "cell-based", "settings": "24 h"}, "gastric cancer AGS cells": {"system": "gastric cancer AGS cells", "design": "method as in PMID 23792648", "settings": "reference anticancer drug; cited from earlier work"}, "[6]": {"assay": "MTT reduction cytotoxicity assay", "format": "cell-based, human", "settings": "human, AGS cells (human gastric adenocarcinoma), 24 h, read-out: mean percentage of viable cells ± SD"}, "[7]": {"assay": "MTT reduction cytotoxicity assay", "format": "cell-based, mouse", "settings": "mouse, L929 cells (mouse fibroblasts), read-out: mean percentage of viable cells ± SD"}},
  "note": "Read-outs that look alike come from different tables or passages of the source.",
  "data": [
    {"smiles": "CC1CC(=O)OC(c2ccc(F)cc2)C1I", "note": "(mixture of isomers) [10c, Cis,trans-6-(4-fluorophenyl)-tetrahydro-5-iodo-4-methylpyran-2-one]", "values": [
      {"measurement": "Number of CFU/mL (× 10^7)", "setting": "[1]", "result": "2.87 × 10^7 CFU/mL"},
      {"measurement": "less CFU/mL (reduction of the number of CFU/mL)", "setting": "[1]; versus control", "result": "70–78%"},
      {"measurement": "Number of CFU/mL (× 10^7)", "setting": "[2]", "result": "6.30 × 10^7 CFU/mL"},
      {"measurement": "stability of purified isomer (in words)", "setting": "[3]", "result": "rapid decomposition with release of iodine"},
      {"measurement": "IC50", "setting": "[4]", "result": 1700, "unit": "nM"},
      {"measurement": "mean percentage of viable cells ± SD", "setting": "[4]; 0.1 μg/mL", "result": "38 ± 0.06", "unit": "%"},
      {"measurement": "mean percentage of viable cells ± SD", "setting": "[4]; 0.5 μg/mL", "result": "23 ± 0.15", "unit": "%"},
      {"measurement": "mean percentage of viable cells ± SD", "setting": "[4]; 5 μg/mL", "result": "20 ± 0.02", "unit": "%"},
      {"measurement": "mean percentage of viable cells ± SD", "setting": "[4]; 10 μg/mL", "result": "13 ± 0.03", "unit": "%"},
      {"measurement": "mean percentage of viable cells ± SD", "setting": "[4]; 20 μg/mL", "result": "10 ± 0.07", "unit": "%"},
      {"measurement": "mean percentage of viable cells ± SD", "setting": "[4]; 50 μg/mL", "result": "8 ± 0.03", "unit": "%"},
      {"measurement": "mean percentage of viable cells ± SD", "setting": "[5]; 0.1 μg/mL", "result": "22 ± 0.05", "unit": "%"},
      {"measurement": "mean percentage of viable cells ± SD", "setting": "[5]; 0.5 μg/mL", "result": "18 ± 0.03", "unit": "%"},
      {"measurement": "mean percentage of viable cells ± SD", "setting": "[5]; 5 μg/mL", "result": "12 ± 0.07", "unit": "%"},
      {"measurement": "mean percentage of viable cells ± SD", "setting": "[5]; 10 μg/mL", "result": "6 ± 0.09", "unit": "%"},
      {"measurement": "mean percentage of viable cells ± SD", "setting": "[5]; 20 μg/mL", "result": "2 ± 0.15", "unit": "%"},
      {"measurement": "mean percentage of viable cells ± SD", "setting": "[5]; 50 μg/mL", "result": "2 ± 0.05", "unit": "%"}
    ]},
    {"smiles": "COc1cccc2c1C(=O)c1c(O)c3c(c(O)c1C2=O)C[C@@](O)(C(=O)CO)C[C@@H]3O[C@H]1C[C@H](N)[C@H](O)[C@H](C)O1", "note": "[doxorubicin]", "values": [
      {"measurement": "IC50", "setting": "gastric cancer AGS cells", "result": 25, "unit": "nM"}
    ]},
    {"smiles": "CC1CC(=O)OC(c2ccccc2)C1I", "note": "(stereo not drawn) [9b, Trans,trans-tetrahydro-5-iodo-4-methyl-6-phenylpyran-2-one]", "values": [
      {"measurement": "Number of CFU/mL (× 10^7)", "setting": "[1]", "result": "9.02 × 10^7 CFU/mL"},
      {"measurement": "Number of CFU/mL (× 10^7)", "setting": "[2]", "result": "21.25 × 10^7 CFU/mL"},
      {"measurement": "melting point", "result": "107 to 108", "unit": "°C"},
      {"measurement": "stability of purified isomer (in words)", "setting": "[3]", "result": "rapid decomposition with release of iodine"},
      {"measurement": "viability at 24 h, 0.1 μg/mL", "setting": "[6]; 0.1 μg/mL", "result": "54 ± 0.15", "unit": "%"},
      {"measurement": "viability at 24 h, 0.5 μg/mL", "setting": "[6]; 0.5 μg/mL", "result": "52 ± 0.15", "unit": "%"},
      {"measurement": "viability at 24 h, 5 μg/mL", "setting": "[6]; 5 μg/mL", "result": "43 ± 0.12", "unit": "%"},
      {"measurement": "viability at 24 h, 10 μg/mL", "setting": "[6]; 10 μg/mL", "result": "26 ± 0.03", "unit": "%"},
      {"measurement": "viability at 24 h, 20 μg/mL", "setting": "[6]; 20 μg/mL", "result": "15 ± 0.06", "unit": "%"},
      {"measurement": "viability at 24 h, 50 μg/mL", "setting": "[6]; 50 μg/mL", "result": "8 ± 0.09", "unit": "%"},
      {"measurement": "IC50", "setting": "[4]; Homo sapiens", "result": 1400, "unit": "nM"},
      {"measurement": "viability at 24 h, 0.1 μg/mL", "setting": "[7]; 0.1 μg/mL", "result": "23 ± 0.03", "unit": "%"},
      {"measurement": "viability at 24 h, 0.5 μg/mL", "setting": "[7]; 0.5 μg/mL", "result": "18 ± 0.03", "unit": "%"},
      {"measurement": "viability at 24 h, 5 μg/mL", "setting": "[7]; 5 μg/mL", "result": "13 ± 0.07", "unit": "%"},
      {"measurement": "viability at 24 h, 10 μg/mL", "setting": "[7]; 10 μg/mL", "result": "11 ± 0.06", "unit": "%"},
      {"measurement": "viability at 24 h, 20 μg/mL", "setting": "[7]; 20 μg/mL", "result": "4 ± 0.15", "unit": "%"},
      {"measurement": "viability at 24 h, 50 μg/mL", "setting": "[7]; 50 μg/mL", "result": "1 ± 0.12", "unit": "%"}
    ]}
  ]
}
